Experimental data from patent publication US4226610A, “Herbicidal compounds, preparation thereof and herbicides containing the same” (Meiji Selka Kaisha, Ltd., priority 1978, dated 1980).
Structures can show the parent of a compound that is named as a salt.

What was measured:
[1] = system: Japanese prickly ash; experiment: Experiment 3 foliar application to naturally growing shrubs; assay type: in vivo, Xanthoxylum piperitum DC.; conditions: after 3 months
Description: (§1) The detail of the assessment made in the following Experiments of the invention was as follows:
(§2) Four months after treatment, evaluation was made for inhibition of reproduction expressed in terms of symbols ranging from (-) to (+++) where (-) means no reproduction, namely complete suppression of reproduction, (±) remarkable suppression of reproduction; (+) considerable suppression of reproduction; (++) medium supprestion of reproduction; and (+++) no suppression of reproduction.
(§3) The compounds of the invention and other compounds listed in Table 5. were diluted to prescribed concentrations and sprayed onto naturally growing shrubs by foliar application in an amount of 150 liter per 10 are.
(§4) 0.1% of octylphenyl polyoxyethanol was added as the surfactant. The killing index (0, no effect; 5, death) after 1 month and 3 months, and the reproduction-inhibiting effect (-, no reproduction; +++, maximum reproduction) after 3 months were determined.

[2] = system: kumaichigo; experiment: Experiment 2 foliar application in Japanese cypress afforested land; assay type: in vivo, Rubus crataegifolius Bunge
Experimental: as §1
(§5) The compounds of the invention and other compounds listed in Table 4. were diluted to prescribed concentrations and sprayed to shrubs by foliar application in a Japanese cypress afforested land in an amount of 150 liter per 10 are.
(§6) After 30 days and 3 months, the killing index (0, no effect; 5, death) was determined.
(§7) The heights of plants were 50-70 cm. for Japanese cypress, about 50 cm. for chestnut, 50-90 cm. for miyakozasa, about 100 cm. for eulalia and 70-100 cm. for kumaichigo, respectively.

[3] = system: white clover; experiment: Experiment 1 foliar application to naturally growing weeds; assay type: in vivo, Trifolium repens L.; conditions: for Reproduction-inhibiting effect: 4 months; for Killing index of Upperground parts: 21 days
Description: as §1, §2
(§8) The compounds of the invention and other compounds for comparison listed in Table 3 were diluted to prescribed concentrations and sprayed to naturally growing weeds by foliar application in an amount of 150 liter per 10 are.
(§9) 0.1% of octylphenyl polyoxyethanol was added as a surfactant.
(§10) The killing index (0, no effect, 5, death) after 21 days, and the reproduction-inhibiting effect (-, no reproduction; +++, maximum reproduction) after 2 months (manna grass and cockspar grass) and 4 months (other weeds) were determined.

[4] = system: torch azalea; experiment: Experiment 3 foliar application to naturally growing shrubs; assay type: in vivo, Rhododendoron Kaempferi Planch.; conditions: after 3 months
Description: as §1, §2, §3, §4

[5] = system: yabugarashi; experiment: Experiment 1 foliar application to naturally growing weeds; assay type: in vivo, Cayratia japonica Houtt.; conditions: 4 months
Description: as §1, §2, §8, §9, §10

[6] = system: cockspar grass; experiment: as above; assay type: in vivo, Echinochloa Crusgalli P. Beauv.; conditions: 2 months
Description: as §1, §2, §8, §9, §10

[7] = system: lace shrub; experiment: Experiment 3 foliar application to naturally growing shrubs; assay type: in vivo, Stephanandra incisa Zabel; conditions: after 3 months
Description: as §1, §2, §3, §4

[8] = system: azumanezasa; experiment: Experiment 1 foliar application to naturally growing weeds; assay type: in vivo, Pleioblastus Chino Makino; conditions: 4 months
Description: as §1, §2, §8, §9, §10

[9] = system: yamazakura; experiment: Experiment 3 foliar application to naturally growing shrubs; assay type: in vivo, Prunus donarium Sieb. var. spontanae Makino; conditions: after 3 months
Description: as §1, §2, §3, §4

[10] = system: oak; experiment: as above; assay type: in vivo, Quercus serrata Thunb; conditions: after 3 months
Description: as §1, §2, §3, §4

[11] = system: manna grass; experiment: Experiment 1 foliar application to naturally growing weeds; assay type: in vivo, Digitaria adsceudes Henr.; conditions: 2 months
Description: as §1, §2, §8, §9, §10

[12] = system: warunasubi; experiment: as above; assay type: in vivo, Solanum carolinensis L.; conditions: 4 months
Description: as §1, §2, §8, §9, §10

[13] = system: eulalia; experiment: Experiment 2 foliar application in Japanese cypress afforested land; assay type: in vivo, Miscanthus sinensis Andress.; design: key: 0 = no effect, 5 = death; conditions: 0.125%; after 3 months
Experimental: as §1, §5, §6, §7

[14] = system: kiichigo; experiment: Experiment 3 foliar application to naturally growing shrubs; assay type: in vivo, Rubus palmatsu Thunb. forma coptophyllus Makino; conditions: after 3 months
Description: as §1, §2, §3, §4

[15] = system: purple nutsedge; experiment: Experiment 1 foliar application to naturally growing weeds; assay type: in vivo, Cyperus rotundus L.; conditions: 4 months
Description: as §1, §2, §8, §9, §10

[16] = system: Japanese bush cranberry; experiment: Experiment 3 foliar application to naturally growing shrubs; assay type: in vivo, Viburnum dilatatum Thunb.; conditions: after 3 months
Description: as §1, §2, §3, §4

[17] = system: chigaya; experiment: Experiment 1 foliar application to naturally growing weeds; assay type: in vivo, Imperata cylindrica Beauv.; conditions: for Reproduction-inhibiting effect: 4 months
Description: as §1, §2, §8, §9, §10

[18] = system: hedge bindweed; experiment: as above; assay type: in vivo, Calystegis hederacea Wall.; conditions: 4 months
Description: as §1, §2, §8, §9, §10

[19] = system: water hyacinth; experiment: Experiment 5 foliar application to water hyacinths; assay type: in vivo, Eichhornia crassipes Solms; design: key to Killing index: 0 = no effect, 5 = death; conditions: for Reproduction-inhibiting effect: 3 months
Description: as §1, §2
Water was placed in 20 cm.×30 cm. plastic vessels and a liquid fertilizer was added thereto. Two water hyacinths were floated in each vessel.
0.1 or 0.2% aqueous solutions of each of the compounds of the invention listed in Table 7 were sprayed by foliar application in an amount of 100 liter per 10 are. As a surfactant, 0.1% of octylphenyl polyoxyethanol was added.
The killing index (0, no effect; 5, death) after 21 days and 3 months, and the reproduction-inhibiting effect (-, no reproduction; +++, maximum reproduction) after 3 months were determined.

## CP(=O)(O)CCC(N)C(=O)O (racemic) [DL-2-Amino-4-methylphosphinobutanoic acid monodiethanolammon] [DL-2-Amino-4-methylphosphinobutanoic acid monodiethanolammonium salt]
[1]; 0.05%
  Reproduction-inhibiting: +++
[1]; 0.1%
  Reproduction-inhibiting: ++
[1]; 0.2%
  Reproduction-inhibiting: -
[2]; 0.125%, after 3 months
  Killing index: 1.5
[3]; 0.05%
  Reproduction-inhibiting effect: +++
[3]; 0.1%
  Reproduction-inhibiting effect: +++
[3]; 0.2%
  Reproduction-inhibiting effect: -
[4]; 0.05%
  Reproduction-inhibiting: +++
[4]; 0.1%
  Reproduction-inhibiting: ++
[4]; 0.2%
  Reproduction-inhibiting: -
[5]; 0.05%
  Reproduction-inhibiting effect: +++
[5]; 0.1%
  Reproduction-inhibiting effect: +++
[5]; 0.2%
  Reproduction-inhibiting effect: ++
[6]; 0.05%
  Reproduction-inhibiting effect: +++
[6]; 0.1%
  Reproduction-inhibiting effect: ++
[6]; 0.2%
  Reproduction-inhibiting effect: -
[7]; 0.05%
  Reproduction-inhibiting: +++
[7]; 0.1%
  Reproduction-inhibiting: ++
[7]; 0.2%
  Reproduction-inhibiting: -
[8]; 0.05%
  Reproduction-inhibiting effect: +++
[8]; 0.1%
  Reproduction-inhibiting effect: +
[8]; 0.2%
  Reproduction-inhibiting effect: -
[9]; 0.05%
  Reproduction-inhibiting: +++
[9]; 0.1%
  Reproduction-inhibiting: ++
[9]; 0.2%
  Reproduction-inhibiting: -
[10]; 0.05%
  Reproduction-inhibiting: +++
[10]; 0.1%
  Reproduction-inhibiting: ++
[10]; 0.2%
  Reproduction-inhibiting: -
[11]; 0.05%
  Reproduction-inhibiting effect: +++
[11]; 0.1%
  Reproduction-inhibiting effect: ++
[11]; 0.2%
  Reproduction-inhibiting effect: -
[12]; 0.05%
  Reproduction-inhibiting effect: +++
[12]; 0.1%
  Reproduction-inhibiting effect: +++
[12]; 0.2%
  Reproduction-inhibiting effect: +
[13]
  Killing index: 1.5
[14]; 0.05%
  Reproduction-inhibiting: +++
[14]; 0.1%
  Reproduction-inhibiting: ++
[14]; 0.2%
  Reproduction-inhibiting: -
[15]; 0.05%
  Reproduction-inhibiting effect: +++
[15]; 0.1%
  Reproduction-inhibiting effect: +++
[15]; 0.2%
  Reproduction-inhibiting effect: +
[16]; 0.05%
  Reproduction-inhibiting: +++
[16]; 0.1%
  Reproduction-inhibiting: ++
[16]; 0.2%
  Reproduction-inhibiting: ++
[17]; 0.05%
  Reproduction-inhibiting effect: +++
[17]; 0.05%, 21 days
  Killing index of Upperground parts: 2.5
[17]; 0.1%
  Reproduction-inhibiting effect: ++
[17]; 0.2%
  Reproduction-inhibiting effect: -
[18]; 0.05%
  Reproduction-inhibiting effect: +++
[18]; 0.1%
  Reproduction-inhibiting effect: +++
[18]; 0.2%
  Reproduction-inhibiting effect: +++

## C[C@H](NC(=O)[C@H](C)NC(=O)[C@@H](N)CCP(C)(=O)O)C(=O)O [monosodium salt]
[1]; 0.05%, monosodium salt
  Reproduction-inhibiting: +++
[1]; 0.1%, monosodium salt
  Reproduction-inhibiting: +
[1]; 0.2%
  Reproduction-inhibiting: -
[2]; 0.25%, after 30 days, monosodium salt
  Killing index: 4.5
[3]; 0.05%, monosodium salt
  Reproduction-inhibiting effect: +++
  Killing index of Upperground parts: 1.5
[3]; 0.1%, monosodium salt
  Reproduction-inhibiting effect: +++
  Killing index of Upperground parts: 3.5
[3]; 0.2%, monosodium salt
  Reproduction-inhibiting effect: +
[4]; 0.05%, monosodium salt
  Reproduction-inhibiting: +++
[4]; 0.1%, monosodium salt
  Reproduction-inhibiting: ++
[4]; 0.2%
  Reproduction-inhibiting: -
[5]; 0.05%, monosodium salt
  Reproduction-inhibiting effect: +++
[5]; 0.1%, monosodium salt
  Reproduction-inhibiting effect: ++
[5]; 0.2%, monosodium salt
  Reproduction-inhibiting effect: ±
[6]; 0.05%, monosodium salt
  Reproduction-inhibiting effect: +++
[6]; 0.1%, monosodium salt
  Reproduction-inhibiting effect: ++
[6]; 0.2%, monosodium salt
  Reproduction-inhibiting effect: ±
[7]; 0.05%, monosodium salt
  Reproduction-inhibiting: +++
[7]; 0.1%, monosodium salt
  Reproduction-inhibiting: ++
[7]; 0.2%
  Reproduction-inhibiting: -
[8]; 0.05%, monosodium salt
  Reproduction-inhibiting effect: +++
[8]; 0.1%, monosodium salt
  Reproduction-inhibiting effect: +
[8]; 0.2%
  Reproduction-inhibiting effect: -
[9]; 0.05%, monosodium salt
  Reproduction-inhibiting: +++
[9]; 0.1%, monosodium salt
  Reproduction-inhibiting: ++
[9]; 0.2%
  Reproduction-inhibiting: -
[10]; 0.05%, monosodium salt
  Reproduction-inhibiting: +++
[10]; 0.1%, monosodium salt
  Reproduction-inhibiting: ++
[10]; 0.2%
  Reproduction-inhibiting: -
[11]; 0.05%, monosodium salt
  Reproduction-inhibiting effect: +++
[11]; 0.1%, monosodium salt
  Reproduction-inhibiting effect: ++
[11]; 0.2%, monosodium salt
  Reproduction-inhibiting effect: ±
[12]; 0.05%, monosodium salt
  Reproduction-inhibiting effect: +++
[12]; 0.1%, monosodium salt
  Reproduction-inhibiting effect: +++
[12]; 0.2%, monosodium salt
  Reproduction-inhibiting effect: +
[14]; 0.05%, monosodium salt
  Reproduction-inhibiting: +++
[14]; 0.1%, monosodium salt
  Reproduction-inhibiting: +
[14]; 0.2%
  Reproduction-inhibiting: -
[19]; 0.1%, listed as SF-1293 monosodium salt, monosodium salt
  Reproduction-inhibiting effect: +
[19]; 0.2%
  Reproduction-inhibiting effect: -
[19]; 0.2%, 21 days, listed as SF-1293 monosodium salt, monosodium salt
  Killing index: 4.5
[15]; 0.05%, monosodium salt
  Reproduction-inhibiting effect: +++
[15]; 0.1%, monosodium salt
  Reproduction-inhibiting effect: +++
[15]; 0.2%, monosodium salt
  Reproduction-inhibiting effect: +
[16]; 0.05%, monosodium salt
  Reproduction-inhibiting: +++
[16]; 0.1%, monosodium salt
  Reproduction-inhibiting: +
[16]; 0.2%
  Reproduction-inhibiting: -
[17]; 0.1%, monosodium salt
  Reproduction-inhibiting effect: ++
[17]; 0.2%
  Reproduction-inhibiting effect: -
[18]; 0.05%, monosodium salt
  Reproduction-inhibiting effect: +++
[18]; 0.1%, monosodium salt
  Reproduction-inhibiting effect: +++
[18]; 0.2%, monosodium salt
  Reproduction-inhibiting effect: +++
